# Columns and labels:
# cellular TGF-β R1 ALK5 = target: T1, cellular TGF-β R1 ALK5 (Homo sapiens, UniProt P36897); test: Cellular inhibition of ALK5 (CellSensor SBE-bla HEK 293T beta-lactamase reporter); format: cell-based; details: cellular inhibition of ALK5, SBE-bla HEK 293T cells, TGFb-1 stimulated 5 hours; average where measured in multiple experiments
# T1 construct: host or cells: CellSensor SBE-bla HEK 293T
# T1 sequence (P36897 34-503): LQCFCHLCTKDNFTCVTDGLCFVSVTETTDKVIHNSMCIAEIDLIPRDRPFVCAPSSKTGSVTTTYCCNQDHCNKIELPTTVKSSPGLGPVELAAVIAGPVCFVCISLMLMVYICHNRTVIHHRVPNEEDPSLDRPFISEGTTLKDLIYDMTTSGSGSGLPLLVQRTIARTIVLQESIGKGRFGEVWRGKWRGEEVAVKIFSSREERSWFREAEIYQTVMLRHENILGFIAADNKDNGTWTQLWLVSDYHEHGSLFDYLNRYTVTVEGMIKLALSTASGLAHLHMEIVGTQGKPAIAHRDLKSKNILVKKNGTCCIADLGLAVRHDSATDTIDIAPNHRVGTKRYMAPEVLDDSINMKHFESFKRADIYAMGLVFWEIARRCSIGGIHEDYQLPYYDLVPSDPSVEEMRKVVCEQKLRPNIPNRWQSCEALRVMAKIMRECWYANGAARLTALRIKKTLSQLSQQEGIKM
# Description: Test compounds were screened for cellular TGF-β R1 ALK5 inhibition by use of a CellSensor® SBE-bla HEK 293T (K1550, Invitrogen Corp. Madison, Wis.) cell line. The CellSensor® SBE-bla HEK 293T cell line contains a beta-lactamase reporter gene under control of the SBE response element stably integrated into HEK 293T cells. The SBE response element is a DNA region that binds activated SMADs which results from the binding of TGF-β to, and subsequent activation of ALK5.
# The assay procedure was as follows:
# CellSensor® SBE-bla HEK 293T cell line were plated at 12,000 cells/well in 40 ul DMEM plus 5 ug/ml blasticidin into 384-well, black-wall, clear-bottom assay plate and incubated overnight.
# The following day 5 uL of 10×, 2.5-fold serially diluted test compounds in DMSO were added into cells to a final compound concentration of 1× and DMSO concentration of 0.5%. Assay was incubated for 1 hour at 37° C., 5% CO2, 5 uL of 100 ng/mL TGFb-1 was then added to activate ALK5 and incubated for 5 hours at 37° C., 5% CO2, 10 uL of detector, LiveBLAzer FRET B/G substrate (CCF4-AM, Invitrogen Corp. Madison, Wis.) was added to cells and incubated for 2 hours at RT. Assay was measured using Spectramax, a bottom-read fluorescence plate reader, at excitation setting of 405 nm and emission settings of 460 nm and 530 nm.
# Response is defined as the ratio of background corrected 460 nm emission values/background corrected 530 nm emission values. Cellular activity was defined as percent inhibition of uninhibited ALK5 activity (wells treated with DMSO+TGF-β). The percent inhibition of cellular ALK5 at a given compound concentration is defined as: 100%×[1−(response compound+TGF-β/response DMSO+TGF-β)] where response compound+TGF-β is defined as the activity in the presence of test compound and response DMSO+TGF-β is defined as the uninhibited cellular ALK5 activity. The pIC50 value (negative log of the molar concentration of the compound that produces 50% inhibition) of a test compound is calculated by non-linear least squares curve fitting. pIC50 values, the negative of the log of the IC50, are calculated by non-linear curve fitting of the compound concentrations and percent of inhibition to the standard pIC50 equation.
# Where inhibition was measured in multiple experiments the value in Table 2 is an average. N.T. means not tested.
# TGF-β R1 ALK5 = target: T2, TGF-β R1 ALK5 (Homo sapiens, UniProt P36897); test: In vitro inhibition of ALK5 (LanthaScreen activity assay, TR-FRET); format: biochemical
# T2 construct: purchased Invitrogen PV5837
# T2 sequence (P36897 34-503): T1 sequence (P36897 34-503)
SMILES,IC50 (cellular TGF-β R1 ALK5) [nM],IC50 (TGF-β R1 ALK5) [nM]
"CNC(=O)n1ncc2nccc(Nc3cc(-c4cccc(C)n4)ncc3C)c21 [Example 81, 7-(5,6′-dimethyl-2,2′-bipyridin-4-ylamino)-N-methyl-1H-pyrazolo[4,3-b]pyridine-1-carboxamide]",126,63.1
"NC(=O)Cn1ncc2nccc(Nc3ccnc(-c4cc(F)ccc4F)c3)c21 [Example 86, 2-(7-(2-(2,5-difluorophenyl)pyridin-4-ylamino)-1H-pyrazolo[4,3-b]pyridin-1-yl)acetamide]",158,50.1
"NC(=O)Cn1cc2nccc(Nc3ccnc(-c4cc(F)ccc4F)c3)c2n1 [Example 87, 2-(7-(2-(2,5-difluorophenyl)pyridin-4-ylamino)-2H-pyrazolo[4,3-b]pyridin-2-yl)acetamide]",251,25.1
"Cc1ccc(F)c(-c2cc(Nc3c(F)cnc4cn(CC(N)=O)nc34)c(C)cn2)n1 [Example 88, 2-(6-fluoro-7-(3′-fluoro-5,6′-dimethyl-2,2′-bipyridin-4-ylamino)-2H-pyrazolo[4,3-b]pyridin-2-yl)acetamide]",158,10
"Cc1ccc(F)c(-c2cc(Nc3ccnc4cnn(CC5CC5)c34)ccn2)n1 [Example 89, 1-(cyclopropylmethyl)-N-(3′-fluoro-6′-methyl-2,2′-bipyridin-4-yl)-1H-pyrazolo[4,3-b]pyridin-7-amine]",200,25.1
"Cc1ccc(F)c(-c2cc(Nc3c(F)cnc4cn(CCO)nc34)c(C)cn2)n1 [Example 91, 2-(6-fluoro-7-(3′-fluoro-5,6′-dimethyl-2,2′-bipyridin-4-ylamino)-2H-pyrazolo[4,3-b]pyridin-2-yl)ethanol]",158,20
"CCNC(=O)n1ncc2nccc(Nc3nc(-c4cc(F)ccc4F)nc(C)c3C)c21 [Example 92, 7-(2-(2,5-difluorophenyl)-5,6-dimethylpyrimidin-4-ylamino)-N-ethyl-1H-pyrazolo[4,3-b]pyridine-1-carboxamide]",501,79.4
"Cc1nc(-c2cc(F)ccc2F)cc(Nc2ccnc3c[nH]nc23)c1C [Example 95, N-(6-(2,5-difluorophenyl)-2,3-dimethylpyridin-4-yl)-2H-pyrazolo[4,3-b]pyridin-7-amine]",158,20
"CCNC(=O)n1ncc2nccc(Nc3nc(-c4cc(F)ccc4F)ncc3C)c21 [Example 97, 7-(2-(2,5-difluorophenyl)-5-methylpyrimidin-4-ylamino)-N-ethyl-1H-pyrazolo[4,3-b]pyridine-1-carboxamide]",398,15.8
"Cc1ccc(F)c(-c2cc(Nc3c(F)cnc4cn(CC(C)(C)O)nc34)c(C)cn2)n1 [Example 99, 1-(6-fluoro-7-(3′-fluoro-5,6′-dimethyl-2,2′-bipyridin-4-ylamino)-2H-pyrazolo[4,3-b]pyridin-2-yl)-2-methylpropan-2-ol]",1260,501
"Cc1ccc(F)c(-c2cc(Nc3c(F)cnc4cn(C[C@H](C)O)nc34)ccn2)n1 [Example 100A, (S)-1-(6-fluoro-7-(3′-fluoro-6′-methyl-2,2′-bipyridin-4-ylamino)-2H-pyrazolo[4,3-b]pyridin-2-yl)propan-2-ol]",1260,398
"Cc1ccc(F)c(-c2cc(Nc3c(F)cnc4cnn(C[C@H](C)O)c34)ccn2)n1 [Example 100B, (S)-1-(6-fluoro-7-(3′-fluoro-6′-methyl-2,2′-bipyridin-4-ylamino)-1H-pyrazolo[4,3-b]pyridin-1-yl)propan-2-ol]",251,63.1
"Cc1ccc(F)c(-c2cc(Nc3ccnc4cn(CC(F)F)nc34)ccn2)n1 [Example 104, 2-(2,2-difluoroethyl)-N-(3′-fluoro-6′-methyl-2,2′-bipyridin-4-yl)-2H-pyrazolo[4,3-b]pyridin-7-amine]",316,79.4
"Cc1ccc(F)c(-c2cc(Nc3ccnc4cnn(C[C@H](C)O)c34)ccn2)n1 [Example 106, (S)-1-(7-(3′-fluoro-6′-methyl-2,2′-bipyridin-4-ylamino)-1H-pyrazolo[4,3-b]pyridin-1-yl)propan-2-ol]",1260,126

# Stronger by IC50 (cellular TGF-β R1 ALK5), values ahead:
IC50 (cellular TGF-β R1 ALK5) [nM],IC50 (TGF-β R1 ALK5) [nM],SMILES
31.6,15.8,"Cc1ccc(F)c(-c2cc(Nc3ccnc4cnn(CC(C)(C)O)c34)ccn2)n1 [Example 70, 1-(7-(3′-fluoro-6′-methyl-2,2′-bipyridin-4-ylamino)-1H-pyrazolo[4,3-b]pyridin-1-yl)-2-methylpropan-2-ol]"
63.1,50.1,"Cc1ccc(F)c(-c2cc(Nc3ccnc4cnn(CCO)c34)ccn2)n1 [Example 71, 2-(7-(3′-fluoro-6′-methyl-2,2′-bipyridin-4-ylamino)-1H-pyrazolo[4,3-b]pyridin-1-yl)ethanol]"
63.1,15.8,"COCCn1ncc2nccc(Nc3ccnc(-c4nc(C)ccc4F)c3)c21 [Example 73, N-(3′-fluoro-6′-methyl-2,2′-bipyridin-4-yl)-1-(2-methoxyethyl)-1H-pyrazolo[4,3-b]pyridin-7-amine]"
63.1,7.94,"Cc1ccc(F)c(-c2cc(Nc3ccnc4cn(CCCO)nc34)c(C)cn2)n1 [Example 90, 3-(7-(3′-fluoro-5,6′-dimethyl-2,2′-bipyridin-4-ylamino)-2H-pyrazolo[4,3-b]pyridin-2-yl)propan-1-ol]"
25.1,5.01,"CCNC(=O)n1ncc2nccc(Nc3ccnc(-c4cc(F)ccc4F)c3)c21 [Example 93, 7-(2-(2,5-difluorophenyl)pyridin-4-ylamino)-N-ethyl-1H-pyrazolo[4,3-b]pyridine-1-carboxamide]"
20,2,"CNC(=O)n1ncc2nccc(Nc3ccnc(-c4cc(F)ccc4F)c3)c21 [Example 94, 7-(2-(2,5-difluorophenyl)pyridin-4-ylamino)-N-methyl-1H-pyrazolo[4,3-b]pyridine-1-carboxamide]"
63.1,20,"Cc1cnc(-c2cc(F)ccc2F)nc1Nc1ccnc2cn[nH]c12 [Example 96, N-(2-(2,5-difluorophenyl)-5-methylpyrimidin-4-yl)-1H-pyrazolo[4,3-b]pyridin-7-amine]"
25.1,6.31,"Cc1ccc(F)c(-c2cc(Nc3ccnc4cnn(C[C@@H](C)O)c34)ccn2)n1 [Example 98, (R)-1-(7-(3′-fluoro-6′-methyl-2,2′-bipyridin-4-ylamino)-1H-pyrazolo[4,3-b]pyridin-1-yl)propan-2-ol]"
100,25.1,"Cc1ccc(F)c(-c2cc(Nc3ccnc4cnn(CCF)c34)ccn2)n1 [Example 101, N-(3′-fluoro-6′-methyl-2,2′-bipyridin-4-yl)-1-(2-fluoroethyl)-1H-pyrazolo[4,3-b]pyridin-7-amine]"
50.1,15.8,"Cc1ccc(F)c(-c2cc(Nc3ccnc4cn(CCF)nc34)ccn2)n1 [Example 102, N-(3′-fluoro-6′-methyl-2,2′-bipyridin-4-yl)-2-(2-fluoroethyl)-2H-pyrazolo[4,3-b]pyridin-7-amine]"
39.8,20,"Cc1ccc(F)c(-c2cc(Nc3ccnc4cnn(CC(F)F)c34)ccn2)n1 [Example 105, 1-(2,2-difluoroethyl)-N-(3′-fluoro-6′-methyl-2,2′-bipyridin-4-yl)-1H-pyrazolo[4,3-b]pyridin-7-amine]"
